One test addresses T1, 5-HT6 Receptor (Homo sapiens, UniProt P50406).
T1 construct: expressed in transfected cells; host or cells: HeLa cells
Kind of test: Binding with 5-HT6 receptor (radioligand binding). As to conditions: compound concentration 10 uM; ligand 1.5 nM [3H]-LSD. The procedure: Binding with 5-HT6 Receptor.
The assay was conducted as follows [Monsma F. J., Jr, Shen Y., Ward R. P., Hamblin M. W., and Sibley D. R. Cloning and Expression of a novel serotonin receptor with high affinity for tricyclic psychotropic drugs. Mol. Pharmacol. 1993, 43: 320-327]: • Receptor source: human recombinant HeLa cells; • Ligand: 1.5 nM [3H]-lysergic acid diethylamide (LSD); • Vehicle: 1% DMSO; • Incubation time: 2 hours at 37 C; • Incubation buffer: 50 mM Tris-HCl, pH 7.4, 150 mM NaCl, 2 mM ascorbic acid, 0.001% BSA; • Compound concentration: 10 uM; • Non-specific ligand: 5 uM serotonin (5-HT); • Quantitation method: radioligand binding

In test [1] the target is butyrylcholine esterase (BuChE) (Homo sapiens, UniProt P06276). As to the kind of experiment: Butyrylcholine esterase assay. The following applies: compound concentration 10 uM; human serum enzyme; 560 uM S-butyrylthiocholine. It counts as biochemical. Here is the method: Butyrylcholine Esterase Assay.
Sequence of butyrylcholine esterase (BuChE) (P06276 29-602): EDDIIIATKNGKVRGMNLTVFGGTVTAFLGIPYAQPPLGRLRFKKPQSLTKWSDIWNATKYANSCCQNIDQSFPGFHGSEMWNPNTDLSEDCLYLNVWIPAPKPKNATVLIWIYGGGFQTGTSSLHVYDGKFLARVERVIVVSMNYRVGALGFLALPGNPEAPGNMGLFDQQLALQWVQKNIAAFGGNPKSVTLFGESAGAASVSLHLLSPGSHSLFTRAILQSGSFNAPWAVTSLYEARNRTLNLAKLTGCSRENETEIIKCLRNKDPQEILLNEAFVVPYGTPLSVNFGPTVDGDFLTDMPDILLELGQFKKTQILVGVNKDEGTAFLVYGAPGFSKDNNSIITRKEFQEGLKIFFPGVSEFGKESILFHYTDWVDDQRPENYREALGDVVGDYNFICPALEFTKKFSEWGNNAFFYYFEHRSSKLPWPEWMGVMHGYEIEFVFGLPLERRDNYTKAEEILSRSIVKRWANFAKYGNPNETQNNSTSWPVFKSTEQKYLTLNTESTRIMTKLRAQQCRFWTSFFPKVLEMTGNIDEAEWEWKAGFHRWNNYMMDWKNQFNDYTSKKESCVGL
The assay was conducted as follows [Ellman G. L., Courtney K. D., Andres Jr. V., and Featherstone R. N. A new and rapid colorimetric determination of acetylcholinesterase activity.

Test [2] deals with mitochondrial permeability transition pores. The following applies: MPP(+) and beta-amyloid fragment 25-35; cited from earlier work.
In another test the test system is C57BL/6 mice. Kind of test: Object recognition test, recognition of a new localization of an object. The test is classed as in vivo. The following applies: for object exploration / discrimination ratio compared with control: 0.02 mg/kg; for time exploring the object in a familiar localization / time exploring the object in a new localization: 0.1 mg/kg, tested 48 hours after training. The source says:
Object recognition test as a method for research on the effects of some exemplary compounds on memory in mice.
The object recognition test is based on a spontaneous behavior of rats and mice to explore a novel object or a new localization of an object more often than a familiar one. This test was first developed for rats [Ennaceur A., Delacour J. A new one-trial test for neurobiological studies of memory in rats. 1: behavioral data. Behav. Brain Res. 1988; 31:47-59]. Thereafter, various researchers have shown that the test is also suitable for assessing memory performance in mice [e.g., Dodart J. C., Mathis C., Ungerer A. Scopolamine-induced deficits in a two-trial object recognition task in mice. NeuroReport 8 (1997), pp. 1173-1178]. The object recognition test is divided into two tests: a test of recognition of a new localization of an object that is used for research on spatial memory, and a test of recognition of a new object that is used for research on non-spatial memory.
Twenty (20) to twenty-two (22) month-old female mice (old mice) and four (4) to six (6) month-old male mice (young mice) of C57BL/6 strain were used. The animals were housed five per cage under a normal light cycle (12×12, light on at 8:00 AM) and with free access to water and food. The training box was made of white, opaque organic glass with dimensions of 48×38×30 cm. Two kinds of plastic items were used as objects for recognition: a white cylinder (d=4 cm, h=2.8 cm), and a black, three-edged prism (2.5×2.5×3.5 cm and h=3.4 cm). Care was taken to avoid olfactory stimuli by cleaning the objects and box carefully. Two (2) to three (3) min before the mice were placed into the box, the objects and the box were wiped with 85% ethanol. Animals were always placed in the middle of the training box.
Referring again to FIGS. 1A-1B and FIGS. 2A-2C, the mice were injected intraperitoneally with some of the various exemplary compounds shown in the figures, or with the vehicle (solvent) alone in the same volume, one hour before the recall trial.
On the first day of the experiment, the mice were handled in the research room for 20 to 30 min for acclimatization. Then, one by one, the mice were habituated to the training box by being placed into the box without any object for 20 min to explore the box, and were returned to their cages.
On the next day, the same mice were brought into a research room. After 20-30 min of acclimatization, each mouse was placed into an empty box for one minute. Then, the mouse was removed from the training box. Two identical objects (white cylinders) were placed approximately 5 inches distant from two adjacent corners of the box and immediately an animal was returned to the box. The time of exploring of each individual object was registered separately with the help of two electronic stop-watches (to within 0.1 sec). The behavior of each animal was observed through a mirror. Exploration was operationally defined as directing the nose to the object from a distance less than 2 cm, or touching the object with the nose. The duration of the training trial was 5, 10, 15 and 20 minutes.
[…] Testing was performed the same way as training, but one of the two familiar objects was changed to the new object (black prism).
When the recognition of a new localization of an object improved, the same experimental sequence was performed, except that only the localization of one of the familiar objects was changed in the testing session.
A significant variability of object exploration times between animals was measured. The ratio of object-exploration times was calculated as follows: each object-exploration time was divided by the sum of both of the object-exploration times during the same testing session, and expressed in percent: (tnew×100%)/(tfamiliar+tnew)
The data were analyzed using a one-way analysis of variance followed by a Student's t-test.

The target in the next test is NMDA receptor. As to conditions: read-out: NMDA receptor inhibition constant (Ki); cited from earlier work.

T1 sequence (P50406 whole entry): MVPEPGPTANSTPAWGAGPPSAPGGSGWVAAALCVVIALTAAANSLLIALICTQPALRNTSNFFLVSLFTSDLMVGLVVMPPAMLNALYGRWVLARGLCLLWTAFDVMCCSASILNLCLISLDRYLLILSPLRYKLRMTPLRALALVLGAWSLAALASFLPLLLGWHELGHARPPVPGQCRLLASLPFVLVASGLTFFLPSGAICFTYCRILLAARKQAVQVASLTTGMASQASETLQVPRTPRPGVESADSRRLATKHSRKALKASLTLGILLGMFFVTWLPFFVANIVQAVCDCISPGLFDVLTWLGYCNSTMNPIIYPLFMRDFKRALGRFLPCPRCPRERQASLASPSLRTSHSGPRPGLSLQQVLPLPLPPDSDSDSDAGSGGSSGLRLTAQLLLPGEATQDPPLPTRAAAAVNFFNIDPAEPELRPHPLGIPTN

The term inhibition denotes the relative decrease from the control value, in per cent. For the compound `CN1CCc2c(c3ccccc3n2CCc2ccc(C(F)(F)F)nc2)C1` [4-01], the values for the inhibition at 10 µM (at 5-HT6 Receptor; in test [1]) were 67% and 65%, respectively.
The like results for `Cc1ccc2c(c1)c1c(n2CCc2ccc(C(F)(F)F)nc2)CCN(C)C1` [4-02] were, in that order, 97% and 95%.
The like results for `CN1CCc2c(c3cc(F)ccc3n2CCc2ccc(C(F)(F)F)nc2)C1` [4-03] were, in that order, 72% and 34%.
The like results for `CN1CCc2c(c3cc(Cl)ccc3n2CCc2ccc(C(F)(F)F)nc2)C1` [4-04] were, in that order, 100% and 97%.
In the case of `CN1CCc2c(c3cc(F)cc(F)c3n2CCc2ccc(C(F)(F)F)nc2)C1` [4-07], the inhibition at 10 µM amounted to 79% on 5-HT6 Receptor and 20% in test [1].
In the case of `CCN1CCc2c(c3cc(Cl)ccc3n2CCc2ccc(C(F)(F)F)nc2)C1` [4-08], the inhibition at 10 µM amounted to 77% at 5-HT6 Receptor and 100% in test [1].
`COc1ccc2c(c1)c1c(n2CCc2ccc(C(F)(F)F)nc2)CCN(C)C1` [I. 4-06]: the inhibition at 10 µM at 5-HT6 Receptor was 72%; in test [1], 99%.
Take `CC(=O)NCCc1c[nH]c2ccc(O)cc12` [N-acetylserotonin]: the “prevention of neurotoxin-induced opening of mitochondrial pores” value in test [2] is “prevented”.
Consider `CN1CCc2c(c3ccccc3n2CCc2cncc(F)c2)C1` [compound 1], for which the inhibition at 10 µM at 5-HT6 Receptor was found to be 90%; in test [1], 75%.
The like results for `Cc1ccc2c(c1)c1c(n2CCc2cncc(F)c2)CCN(C)C1` [compound 2] were, in that order, 102% and 87%.
In the same order, the values of `CN1CCc2c(c3cc(F)ccc3n2CCc2cncc(F)c2)C1` [compound 3] are 99% and 58%.
In the same order, the values of `CN1CCc2c(c3cc(Cl)ccc3n2CCc2cncc(F)c2)C1` [compound 4] are 103% and 91%.
For the compound `CN1CCc2c(c3cc(Br)ccc3n2CCc2cncc(F)c2)C1` [compound 5], the inhibition at 10 µM on 5-HT6 Receptor was 103%. The inhibition at 10 µM in test [1] is 96%. In the test on C57BL/6 mice, the “effectiveness as memory stimulating agents relative to memantine” value is given as “approximately 25 times”, the “object exploration / discrimination ratio compared with control” value is recorded as “did not differ significantly from the control”, the “time exploring the object in a familiar localization” value was “approximately 43.0%” and the “time exploring the object in a new localization” value is 57+/−4.6%.
Turning to `COc1ccc2c(c1)c1c(n2CCc2cncc(F)c2)CCN(C)C1` [compound 6], the inhibition at 10 µM on 5-HT6 Receptor worked out at 96%; in test [1] it was 99%.
On to `CN1CCc2c(c3cc(F)cc(F)c3n2CCc2cncc(F)c2)C1` [compound 8], for which, on 5-HT6 Receptor, the inhibition at 10 µM was determined as 91%. In test [1], the inhibition at 10 µM worked out at 31%. Moreover, in the test on C57BL/6 mice, the “effectiveness as memory stimulating agents relative to memantine” value is recorded as “approximately 25 times”, the “object exploration / discrimination ratio compared with control” value is “not different from that of the control mice”, the “time exploring the object in a familiar localization” value is 39.2+/−6.9% and the “time exploring the object in a new localization” value is recorded as 60.8+/−6.9%.
As for `CN1CCc2c(c3cc(C(F)(F)F)ccc3n2CCc2cncc(F)c2)C1` [compound 9], the inhibition at 10 µM at 5-HT6 Receptor worked out at 103%; in test [1], 95%.
The like results for `CN1CCc2c(c3cc(OC(F)(F)F)ccc3n2CCc2cncc(F)c2)C1` [compound 10] were, in that order, 95% and 100%.
The like results for `CCN1CCc2c(c3ccccc3n2CCc2cncc(F)c2)C1` [compound 11] were, in that order, 77% and 66%.
In the same order, the values of `CCN1CCc2c(c3cc(C)ccc3n2CCc2cncc(F)c2)C1` [compound 12] are 101% and 89%.
Consider `CCN1CCc2c(c3cc(F)ccc3n2CCc2cncc(F)c2)C1` [compound 14], for which the inhibition at 10 µM was 88% on 5-HT6 Receptor and 53% in test [1].
`CCN1CCc2c(c3cc(Cl)ccc3n2CCc2cncc(F)c2)C1` [compound 15]: the inhibition at 10 µM stood at 99% at 5-HT6 Receptor and 94% in test [1].
As usually defined, the Ki is a measure of affinity in units of concentration, obtained from inhibition or displacement. As for `CC12CC3CC(C)(C1)CC(N)(C3)C2` [memantine], the Ki at NMDA receptor was 500 nM.
In the case of `Nc1c2c(nc3ccccc13)CCCC2` [tacrine], in test [2], the “prevention of neurotoxin-induced opening of mitochondrial pores” value is recorded as “prevented”.
